System: 299254-011-R-J1-PDC complex spheroid viability
Test: Anticancer human tumor 299254-011-R-J1-PDC patient-derived melanoma cell line growth inhibition [POLQ]
Conditions: for IC50: curve of first compound; for viability, T/C: stronger effect = lower value
Procedure: Multicellular complex tumor spheroid response to Polymerase (POL) inhibitors (novobiocin, ART-558, RP6685) in combination with a variety of drugs and investigational agents in selected tumor cell lines
The POL inhibitors (novobiocin, ART-558, and RP6685) were evaluated both individually and in combination with standard of care and investigational anticancer small molecules within a complex spheroid model of solid tumors. . Complex spheroids include a stromal component modeled by human endothelial cells (HUVEC) and fibroblasts modeled by human mesenchymal stem cells (MSCs). The concentration ranges selected for each drug and investigational agent were based upon clinically achievable concentrations if the clinical Cmax of the agent was known.
Compounds. The drugs and investigational agents: novobiocin (NSC847541), ART-558 (NSC835418), RP-6685 (NSC848927), peposertib (NSC802822), ceralasertib (NSC780249), elimusertib (NSC800525), camonsertib (NSC841442), AZD-1390 (NSC803789), olaparib (NSC753686), talazoparib (NSC767125), rucaparib (NSC756644), sotorasib (NSC818433), MRTX-1133 (NSC836407), SN-38 (NSC673596), topotecan (NSC609699), epotoside (NSC141540), doxorubicin (NSC123127), gemcitabine (NSC613327), 5-fluorouracil (NSC19893), paclitaxel (NSC125973), vemurafenib (NSC761431), MSA-2 (NSC828583), SN-011 (NSC837082), adavosertib (NSC754352), prexasertib (NSC758257), carboplatin (NSC241240) and oxaliplatin (NSC266046), were obtained from the National Cancer Institute (NCI) Developmental Therapeutics Program Chemical Repository (21). The FDA-approved anticancer drug set is available from the Developmental Therapeutics Program at https://dtp.cancer.gov/organization/dscb/obtaining/. […] The stock solutions were prepared in dimethyl sulfoxide (DMSO, Sigma-Aldrich, St. Louis, MO, cat. D2650), except for the platinum compounds which were prepared in saline (Quality Biological, Gaithersburg, MD, cat. 114-055-101), at 800-fold the tested concentration and stored at -70 degrees C prior to their use. All drugs and investigational agents were tested over a range starting from a high concentration at or near the clinical Cmax and decreasing in half-log increments. If the clinical Cmax for an agent had not been determined, the highest concentration tested was 10 microM, except for SN-38, which was tested at a high concentration of 1 microM.
Cell Culture. All cells were maintained in an incubator at 37 degrees C and 5% CO2 with 95% humidity. The PDC lines were cultured according to standard operating procedures established by the NCI PDMR (https://pdmr.cancer.gov). Table 3 of the manuscript, lists the cell lines along with the number of the three cell types plated to form the mct-spheroids and media for tumor cell growth. After thawing, all PDC lines, except 997537-175-T-J1-PDC and 415267-285-R-J2-PDC, were cultured in Matrigel-coated flasks prepared with a working solution of 1X Ham's F-12 nutrient mix, without supplementation (Thermo Fisher Scientific, cat. 11765054), 100 U/mL penicillin-streptomycin (Thermo Fisher Scientific, cat. 15140122), and 2.5% Matrigel (Corning Inc., Corning, NY, cat. 354248) for the first three passages. The two PDC lines 997537-175-T-J1-PDC and 415267-285-R-J2-PDC were cultured on uncoated flasks. The 857933-349-R-J2-PDC line was cultured in 6C/Colon 1B media containing advanced DMEM/F-12 (Thermo Fisher Scientific, cat. 12634028), 10 mM HEPES (Thermo Fisher Scientific, cat. 15630080), 1X GlutaMAX supplement (Thermo Fisher Scientific, cat. 35050061), 0.1 mg/mL primocin (InvivoGen, San Diego, CA, cat. ant-pm-2), 10% defined fetal bovine serum, heat inactivated (HyClone Laboratories Inc., Logan, UT, cat. SH30070.03HI), 50% L-WRN conditioned media (ATCC, cat. CRL-3276), 1.25 mM N-Acetyl-L-cysteine (Sigma-Aldrich, cat. A9165), 10 mM nicotinamide (Sigma-Aldrich, cat. N0636), 1X B-27 supplement (Thermo Fisher Scientific, cat. 17504044), 1X N-2 supplement (Thermo Fisher Scientific, cat. […]
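Further: spheroids exposed to drugs for one week before measurement.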
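Wherever viability, T/C is given: percent viability relative to DMSO vehicle control taken as 100%.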

With CC(=O)O[C@H]1C(=O)[C@@]2(C)[C@H]([C@H](OC(=O)c3ccccc3)[C@]3(O)C[C@H](OC(=O)[C@H](O)[C@@H](NC(=O)c4ccccc4)c4ccccc4)C(C)=C1C3(C)C)[C@]1(OC(C)=O)CO[C@@H]1C[C@@H]2O + COC1C(OC(N)=O)C(O)C(Oc2ccc3c(O)c(NC(=O)c4ccc(O)c(CC=C(C)C)c4)c(=O)oc3c2C)OC1(C)C the IC50 (second compound 0.0316 µM) was 108 nM, the IC50 (second compound 0.1 µM) was 70.7 nM and the IC50 (second compound 0.316 µM) was 71.9 nM. It also gave an IC50 (second compound 1 µM) of 71.9 nM, an IC50 (second compound 3.16 µM) of 124 nM and an IC50 (second compound 10 µM) of 90.2 nM. It also gave a viability, T/C (second compound 0.0316 µM, first compound 0.00949 µM) of 77.3%, a viability, T/C (second compound 0.0316 µM, first compound 0.03 µM) of 75.9% and a viability, T/C (second compound 0.0316 µM, first compound 0.0949 µM) of 53.4%. The viability, T/C (second compound 0.0316 µM, first compound 0.3 µM) was 23.2%, the viability, T/C (second compound 0.0316 µM, first compound 0.949 µM) was 21.8% and the viability, T/C (second compound 0.0316 µM, first compound 3 µM) was 15.9%. For the same molecule, the viability, T/C (second compound 0.1 µM, first compound 0.00949 µM) was 97%, the viability, T/C (second compound 0.1 µM, first compound 0.03 µM) was 63.3% and the viability, T/C (second compound 0.1 µM, first compound 0.0949 µM) was 46.7%. The viability, T/C (second compound 0.1 µM, first compound 0.3 µM) was 30.9%, the viability, T/C (second compound 0.1 µM, first compound 0.949 µM) was 21.4% and the viability, T/C (second compound 0.1 µM, first compound 3 µM) was 16%. The viability, T/C (second compound 0.316 µM, first compound 0.00949 µM) was 101%, the viability, T/C (second compound 0.316 µM, first compound 0.03 µM) was 73.1% and the viability, T/C (second compound 0.316 µM, first compound 0.0949 µM) was 41.4%. For the same molecule, the viability, T/C (second compound 0.316 µM, first compound 0.3 µM) was 29.5%, the viability, T/C (second compound 0.316 µM, first compound 0.949 µM) was 21.2% and the viability, T/C (second compound 0.316 µM, first compound 3 µM) was 20%. For the same molecule, the viability, T/C (second compound 1 µM, first compound 0.00949 µM) was 95.1%, the viability, T/C (second compound 1 µM, first compound 0.03 µM) was 70% and the viability, T/C (second compound 1 µM, first compound 0.0949 µM) was 43.8%. It also gave a viability, T/C (second compound 1 µM, first compound 0.3 µM) of 27.1%, a viability, T/C (second compound 1 µM, first compound 0.949 µM) of 22.2% and a viability, T/C (second compound 1 µM, first compound 3 µM) of 18.3%. For the same molecule, the viability, T/C (second compound 3.16 µM, first compound 0.00949 µM) was 90.7%, the viability, T/C (second compound 3.16 µM, first compound 0.03 µM) was 68.3% and the viability, T/C (second compound 3.16 µM, first compound 0.0949 µM) was 61.3%. For the same molecule, the viability, T/C (second compound 3.16 µM, first compound 0.3 µM) was 31.5%, the viability, T/C (second compound 3.16 µM, first compound 0.949 µM) was 22.6% and the viability, T/C (second compound 3.16 µM, first compound 3 µM) was 16.8%. It also gave a viability, T/C (second compound 10 µM, first compound 0.00949 µM) of 86.6%, a viability, T/C (second compound 10 µM, first compound 0.03 µM) of 84.9% and a viability, T/C (second compound 10 µM, first compound 0.0949 µM) of 47.1%. It also gave a viability, T/C (second compound 10 µM, first compound 0.3 µM) of 28%, a viability, T/C (second compound 10 µM, first compound 0.949 µM) of 21.6% and a viability, T/C (second compound 10 µM, first compound 3 µM) of 17.6%.

Source: PubChem BioAssay AID1963849 (Molecular Pharmacology Branch, DTP, NCI, 2024)
